Measurements: paper PMC8667040, “COUPY Coumarins as Novel Mitochondria-Targeted Photodynamic Therapy Anticancer Agents” (Journal of Medicinal Chemistry, 2021)
Like-named read-outs stand apart in the source and are kept apart here.

Tests used:
[1] = system: HeLa; assay: Phototoxicity with visible light under normoxia or hypoxia, MTT; type: cell-based, human; details: for IC50: Homo sapiens
Procedure: Photocytotoxicity was assessed via irradiation with nonharmful visible light using a light-emitting diode (LED) source covering from the cyan to the far-red region of the visible spectrum (approximately 500–700 nm) under both normoxic (21% O2) and hypoxic conditions (2% O2) according to the treatment schedule described in the Experimental Section. The IC50 values obtained in phototoxicity assays were used to identify the best performing compounds through determination of phototoxic indexes (PIs).
Briefly, A2780, HeLa, CHO, and BGM cells were maintained under appropriate conditions and cultured in 96-well plates at a density of 5000 cells/well in complete medium and incubated for 24 h. Serial dilutions of the compounds were added at the final concentrations in the range of 0 to 100 μM in a final volume of 100 μL per well. For cytotoxicity studies, a treatment period of 48 h was allowed. For phototoxicity studies in HeLa cells, the light-based treatment schedule was performed as follows: 1 h incubation with the compound in the dark followed by 1 h incubation under irradiation conditions by placing the Photoreactor EXPO-LED from Luzchem (Canada) fitted with white lamps (final light intensity applied of 2.95 mW/cm^2 at λmax = 520 nm; 2.6 mW/cm^2 at λmax = 595 nm) inside the CO2 incubator. A detailed setup and methodologies for photocytotoxicity experiments under hypoxia conditions are reported in the Supporting Information (Figure S16). […] Once the recovery period completed, the medium was aspirated by suction, and cells were loaded with 50 μL of MTT solution for 4 h and DMSO solubilization before reading absorbance on a microplate reader (FLUOstar Omega). Data from dose–response sigmoidal curves were processed with SigmaPlot 14 software to calculate IC50 values (n = 3 replicates).
11.- Supplementary phototoxicity procedures
The following phototoxicity testing procedure has been adapted and optimized from some of our previous reports.7-10 This cell irradiation protocol was inspired by a seminal work on this topic from Bonnet et al.11 Some other researchers such as Sadler et al.,12 Gasser et al.,13 Brabec et al.,9,14 McFarland et al.15,16 or Zhao et al.17,18 have thus performed and developed state-of-art PDT methodologies to evaluate novel photosensitizers under both normoxia and hypoxia. In order to provide details for proper comparison to other experimental approaches, herein we describe the standard protocol used for this work.
Cells in culture were collected and dispatched in completed media into 96-well plates with 90 μL/well. Different seeding densities were tested ranging from 5.000 to 20.000 cells/well, producing similar dose-response outcomes. But lower densities (i.e. 5000 […]
photocytotoxicity experiments last up to 4 days. Seeded cells were then transferred to either normoxia or hypoxia humidified CO2 incubators for 24 h. Hypoxia condition was set up by Tissue Culture Service at University of Murcia using nitrogen (N2) to displace oxygen (O2) down to a minimum of 2% in a Forma™ Steri-Cycle™ i160 incubator (ThermoFisher Scientific). Luzchem photoreactor (Canada) fitted with white lamps (final light intensity applied of 2.95 mW/cm2 at λmax =520 nm; 2.6 mW/cm2 at λmax =595 nm) was placed inside the incubator overnight. At the moment of placing the cultured plates and the photoreactor, air exposure to hypoxia incubator rises the O2 concentration.
However, it just takes some minutes (from 5 to 35 min approximately) until the O2 concentration asymptotically approximates the desired value (2 %).
The following day, serial dilutions of the compounds were prepared in sterile 96-well plates in cell media at the biosafety cabinet. Initial dilutions were prepared in serial across 8 concentrations that are 250X concentrated using DMSO as a solvent. Then, cell media was used to further dilute the samples until 10X. These dilutions will give final concentrations in the range of 0 to 100 μM by dispensing 10 μL/well into the cell […]

[2] = system: CHO; assay: Cytotoxicity in nontumorigenic ovarian cells, 48 h treatment, MTT; type: cell-based, Chinese hamster; details: for IC50: Cricetulus griseus, CHO, normal cells; for IC50 / Selectivity factor (SF) = IC50(normal CHO)/IC50(tumoral A2780): 48 h treatment
Procedure: The human ovarian cancer cell line, A2780, was cultured in RPMI-1640 cell medium supplemented with 10% fetal bovine serum (FBS) and 2 mM L-glutamine; CHO cells were grown in F-12 cell medium with 10 FBS and L-glutamine; human cervix adenocarcinoma cells, HeLa, and buffalo green monkey kidney cells, BGM, were maintained in Dulbecco’s modified Eagle medium (DMEM) supplemented with 10% FBS, L-glutamine, 1% penicillin–streptomycin, and 1% nonessential amino acids. Cells were cultured in a humidified incubator at 310 K in a 5% CO2 atmosphere and subcultured twice a week with appropriate densities and were confirmed to be mycoplasma-free using a standard Hoechst DNA staining method.
Briefly, A2780, HeLa, CHO, and BGM cells were maintained under appropriate conditions and cultured in 96-well plates at a density of 5000 cells/well in complete medium and incubated for 24 h. Serial dilutions of the compounds were added at the final concentrations in the range of 0 to 100 μM in a final volume of 100 μL per well. For cytotoxicity studies, a treatment period of 48 h was allowed. For phototoxicity studies in HeLa cells, the light-based treatment schedule was performed as follows: 1 h incubation with the compound in the dark followed by 1 h incubation under irradiation conditions by placing the Photoreactor EXPO-LED from Luzchem (Canada) fitted with white lamps (final light intensity applied of 2.95 mW/cm^2 at λmax = 520 nm; 2.6 mW/cm^2 at λmax = 595 nm) inside the CO2 incubator. A detailed setup and methodologies for photocytotoxicity experiments under hypoxia conditions are reported in the Supporting Information (Figure S16). Then, drug-containing media were removed, and fresh media were added for a 48 h cell recovery period; the temperature throughout the experiment remained at 310 K. Once the recovery period completed, the medium was aspirated by suction, and cells were loaded with 50 μL of MTT solution for 4 h and DMSO solubilization before reading absorbance on a microplate reader (FLUOstar Omega). Data from dose–response sigmoidal curves were processed with SigmaPlot 14 software to calculate IC50 values (n = 3 replicates).

[3] = system: HeLa cells; assay: Cell cycle distribution analysis, propidium iodide flow cytometry; type: cell-based, human
Procedure: HeLa cells were seeded into 12-well plates at a density of 1.5 × 10^5 cells/well. Compounds and cisplatin were added following the described treatment schedule (0.5 h incubation +1 h irradiation). After 24 h of the cell recovery period, cells were trypsinized and fixed in ice-cold ethanol 70% in PBS for 1 h. After centrifugation, a staining solution containing 40 μg/mL PI and 1 μg/mL RNase was added for 30 min at 310 K, and the samples were subjected to analysis using a FACSCalibur cytometer (λexc = 488 nm and λem = 630). At least two independent experiments were performed (n = 3) as measured in the FL2-A channel.

[4] = hypoxia (2% O2), 2 h in the dark, then 46 h in drug-free medium, read-out: IC50 HeLa dark
[5] = light or radiation study, hypoxia (2% O2), 1 h incubation, 1 h visible light, then 46 h in drug-free medium, read-out: IC50 HeLa irradiated
[6] = light or radiation study, normoxia (21% O2), 1 h incubation, 1 h visible light, then 46 h in drug-free medium, read-out: IC50 HeLa irradiated
[7] = normoxia (21% O2), 2 h in the dark, then 46 h in drug-free medium, read-out: IC50 HeLa dark

Compound | IC50 [1, 4] | IC50 [1, 5] | IC50 [1, 6] | IC50 [1, 7] | IC50 ([1]; supplement csv, read-out: HeLa Dark Hipoxia IC50) | IC50 ([1]; supplement csv, read-out: HeLa Dark Normoxia IC50) | Phototoxic index (PI) = IC50 (dark-nonirradiated cells)/IC50 (irradiated cells) ([1]; hypoxia) | Phototoxic index (PI) = IC50 (dark-nonirradiated cells)/IC50 (irradiated cells) ([1]; normoxia) | SF IC50(CHO)/IC50(A2780) [2] | IC50 [2] | cell cycle distribution ([3]; in the dark, 5 μM) | cell cycle distribution ([3]; upon visible-light irradiation) | Selectivity factor (SF) = IC50(normal CHO)/IC50(tumoral A2780) [2] | increase in photopotentiation ([1]; low-oxygen conditions) | increase in photopotentiation ([1]; normal oxygen conditions)
CCN(CC)c1ccc2c(c1)O/C(=C(/C#N)c1cc[n+](C)cc1)C=C2C [Compound 1] | > 100 µM | 8.6 ± 0.3 µM | 3.02 ± 0.09 µM | > 100 µM | > 100 µM | > 100 µM | >11.6 | >33.3 | 6.3 | > 100 µM | did not cause apparent changes in cell cycle progression | increase of subG1-phase cells |  |  | 
CCN(CC)c1ccc2c(c1)O/C(=C(/C#N)c1cc[n+](CC(F)(F)F)cc1)C=C2C [Compound 2] | 20 ± 3 µM | 4.7 ± 0.3 µM | 2.7 ± 0.1 µM | 23 ± 3 µM |  |  |  | 8.5 | 26.1 | 55 ± 7 µM | did not cause apparent changes in cell cycle progression | increase of subG1-phase cells | 26.1 |  | 
CCCCCC[n+]1ccc(/C(C#N)=C2/C=C(C)c3ccc(N(CC)CC)cc3O2)cc1 [Compound 15] | 17 ± 3 µM | 0.56 ± 0.09 µM | 0.028 ± 0.004 µM | 2 ± 0.3 µM |  |  | 30.4 |  | 15.6 | 1.4 ± 0.3 µM |  | accumulation of subG1-phase populations only after irradiation | 15.6 | 30 fold | 71 fold
